Values of other authors in patent US20060093222A1, “Data processing, analysis, and visualization system for use with disparate data types” (priority 1999, published 2006).

Legend:
[1] = system: stroke patients
[2] = system: Bacillus subtilis and Bacillus cereus; settings: liquid and semi-solid substrates, aerobic and anaerobic

Molecule	additional patients normal or nearly normal 3 months after their stroke ([1]; for every 100 stroke patients treated with t-PA)	rate of fatal ICH ([1]; t-PA therapy, stroke patients) [%]	rate of symptomatic intracerebral hemorrhage (ICH) ([1]; t-PA therapy, stroke patients) [%]	anti-sporulation effect [2]
Tissue plasminogen activator [t-PA]	11-13	3	6	
O=S(O)S(=O)(=O)O [metabisulphite]				effective anti-sporulation agent
